Key:
[1] = biological target: T1, Arabidopsis thaliana AtSWEET7 transporter, wild type (Table 2: SEQ ID NO: 3; FIG. 12: SEQ ID NO:2) (Arabidopsis thaliana, UniProt Q8LBF7); experiment: C14 labeled sugar uptake assay (zero-trans influx), SR8D8 expressing AtSWEET7; type: cell-based; details: initial glucose uptake (5 s), 30° C., pH 6.5; cell wet weight; ± SEM
T1 construct: expressed in transfected cells; host or cells: S. cerevisiae SR8D8 (SR8 with HXT1-7 and GAL2 deleted), plasmid p42K-GPD1p-CYC1t
T1 sequence (Q8LBF7 1-258): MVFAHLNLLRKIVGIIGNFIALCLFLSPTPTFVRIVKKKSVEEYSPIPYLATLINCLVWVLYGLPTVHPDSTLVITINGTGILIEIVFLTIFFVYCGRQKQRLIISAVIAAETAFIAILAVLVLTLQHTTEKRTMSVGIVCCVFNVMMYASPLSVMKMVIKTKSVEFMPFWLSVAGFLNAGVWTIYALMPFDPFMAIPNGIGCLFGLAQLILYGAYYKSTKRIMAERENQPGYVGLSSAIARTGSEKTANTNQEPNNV
Experimental: FIG. 7A illustrates sugar uptake kinetics by SR8D8. FIG. 7B illustrates sugar uptake kinetics by SR8D8 expressing AtSWEET1. FIG. 7C illustrates sugar uptake kinetics by SR8D8 expressing ScGal2. FIG. 7D illustrates sugar uptake kinetics by SR8D8 expressing AtSWEET7. FIG. 7E illustrates sugar uptake kinetics by SR8D8 expressing LST1_205437. Initial xylose uptake (20 s) was measured at 30° C. over a concentration range of 1 to 500 mM xylose. FIG. 7F illustrates sugar uptake kinetics by SR8D8. FIG. 7G illustrates sugar uptake kinetics by SR8D8 expressing AtSWEET1. FIG. 7H illustrates sugar uptake kinetics by SR8D8 expressing ScGal2. FIG. 7I illustrates sugar uptake kinetics by SR8D8 expressing AtSWEET7. FIG. 7J illustrates sugar uptake kinetics by SR8D8 expressing LST1_205437. Initial glucose uptake (5 s) was measured at 30° C. over a concentration range of 0.2 to 100 mM glucose. […]
(§1) A xylose fermenting S. cerevisiae yeast (SR8) with HXT1-7Δ, GAL2Δ deletions was used for transporter screening and characterization (SR8D8). […] Biomass was calculated from the OD600 measured using a Biomate 5 UV-visible spectrophotometer (Fisher, NY, USA). All growth rates were measured using a Bioscreen C plate reader system (Growth Curves USA, Piscataway, NJ, USA). […]
Uptake was measured at sugar concentrations 0.2, 1, 5, 25, and 100 mM for glucose and 1, 5, 25, 66, 100, 200, and 500 mM for xylose. […]

[2] = biological target: T2, Saccharomyces cerevisiae ScGal2 (Gal2) transporter, SEQ ID NO:32 (Saccharomyces cerevisiae, UniProt P13181); experiment: C14 labeled sugar uptake assay (zero-trans influx), SR8D8 expressing ScGal2; type: cell-based; details: initial glucose uptake (5 s), 30° C., pH 6.5
T2 construct: expressed in transfected cells; host or cells: S. cerevisiae SR8D8 (SR8 with HXT1-7 and GAL2 deleted), plasmid p42K-GPD1p-CYC1t
T2 sequence (P13181 1-574): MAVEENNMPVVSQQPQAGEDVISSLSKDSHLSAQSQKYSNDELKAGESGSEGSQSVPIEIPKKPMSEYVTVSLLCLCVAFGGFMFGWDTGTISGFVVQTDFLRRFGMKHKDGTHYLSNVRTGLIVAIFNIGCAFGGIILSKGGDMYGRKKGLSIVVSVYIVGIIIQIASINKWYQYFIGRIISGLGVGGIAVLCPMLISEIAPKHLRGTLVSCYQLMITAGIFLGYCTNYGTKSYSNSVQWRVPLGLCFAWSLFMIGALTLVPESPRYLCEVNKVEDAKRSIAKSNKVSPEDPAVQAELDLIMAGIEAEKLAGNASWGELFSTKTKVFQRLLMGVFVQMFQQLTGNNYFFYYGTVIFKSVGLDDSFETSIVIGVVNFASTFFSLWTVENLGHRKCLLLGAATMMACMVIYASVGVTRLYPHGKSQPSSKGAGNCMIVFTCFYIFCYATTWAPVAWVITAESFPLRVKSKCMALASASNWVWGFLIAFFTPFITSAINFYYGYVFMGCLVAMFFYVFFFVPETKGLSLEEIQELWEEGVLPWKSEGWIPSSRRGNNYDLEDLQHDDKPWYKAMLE
Experimental: FIG. 7A illustrates sugar uptake kinetics by SR8D8. FIG. 7B illustrates sugar uptake kinetics by SR8D8 expressing AtSWEET1. FIG. 7C illustrates sugar uptake kinetics by SR8D8 expressing ScGal2. FIG. 7D illustrates sugar uptake kinetics by SR8D8 expressing AtSWEET7. FIG. 7E illustrates sugar uptake kinetics by SR8D8 expressing LST1_205437. Initial xylose uptake (20 s) was measured at 30° C. over a concentration range of 1 to 500 mM xylose. FIG. 7F illustrates sugar uptake kinetics by SR8D8. FIG. 7G illustrates sugar uptake kinetics by SR8D8 expressing AtSWEET1. FIG. 7H illustrates sugar uptake kinetics by SR8D8 expressing ScGal2. FIG. 7I illustrates sugar uptake kinetics by SR8D8 expressing AtSWEET7. FIG. 7J illustrates sugar uptake kinetics by SR8D8 expressing LST1_205437. Initial glucose uptake (5 s) was measured at 30° C. over a concentration range of 0.2 to 100 mM glucose. Curve fitting for Michaelis-Menten kinetics was applied to data of three independent measurements at each concentration.
as §1, with “(SR8D8). SR8D8 was grown in YPE medium/plate (10 g/L yeast extract, 20 g/L peptone, and 5 g/L ethanol).” for “(SR8D8).”
SR8D8 containing the respective plasmid was grown on selective YPE medium to an OD600 of 1-1.5, harvested by centrifugation, and washed twice in ice-cold uptake buffer (100 mM potassium phosphate, pH 6.5). […] Radioactivity was analyzed in a Beckman-Coulter LS6500 multi-purpose liquid scintillation counter (Beckman-Coulter, CA, USA).
Uptake was measured at sugar concentrations 0.2, 1, 5, 25, and 100 mM for glucose and 1, 5, 25, 66, 100, 200, and 500 mM for xylose. Inhibition of xylose uptake by glucose was measured at 25, 66, and 100 mM xylose with additional 25 and 100 mM unlabeled glucose.

Structure (SMILES): OC[C@H]1OC(O)[C@H](O)[C@@H](O)[C@@H]1O (stereo partly drawn) [Glucose]
- Vmax (glucose) [1]: 110.3 ± 7.2 nmol/min/mg
- Vmax (glucose) [2]: 38.33 nmol/min/mg
- Vmax (glucose) ([2]; cell wet weight, ± SEM): 38.3 ± 1.4 nmol/min/mg

Source: US12686846B2, “Plant sweet and yeast MSF transporter capable of transporting different sugars simultaneously” (THE BOARD OF TRUSTEES OF THE UNIVERSITY OF ILLINOIS, priority 2020, dated 2026)
